Test results taken from patent publication US20100120716.

Settings: from C=CCCCCCC[C@@H](NC(=O)C1CC(OC(=O)N2Cc3ccccc3C2)CN1C(=O)N(C)CC=C)B1O[C@@H]2C[C@@H]3C[C@@H](C3(C)C)[C@]2(C)O1; rcm bond; Grubbs 2nd generation catalyst; toluene; 6.5 mM; 65.0 °C

CN1CC=CCCCCCC[C@H](B2O[C@@H]3C[C@@H]4C[C@@H](C4(C)C)[C@]3(C)O2)NC(=O)C2CC(OC(=O)N3Cc4ccccc4C3)CN2C1=O (stereo partly shown)
ring closure, yield of all isomers: 40%
